Measured values reported in patent publication US20240009246A1, “CELLULAR-ANTIMICROBIAL COMBINATION COMPOSITION AND METHODS FOR TREATMENT OF BACTERIAL INFECTIONS OF JOINTS AND SOFT TISSUES” (priority 2021, published 2024).
Converted amounts (≈) assume the structure as drawn. Where two headings read alike, the source gives them in different places.

Tests used:
Chondrocytes [1] = experiment: in vitro cytotoxic activity of antibiotics against horse chondrocytes; format: cell-based; settings: for IC50: Equus caballus, Chondrocyte, read-out: Concentration (equine IC50)
Text: (§1) Table 1 and 2 represent in vitro evaluation of the cytotoxic activity of different conventional antibiotics, as assessed for toxicity against dog cells (Table 1) or horse cells (Table 2). Similar toxicity profiles would also be anticipated for human cells.
(§2) The antibiotics with the highest IC50 values are considered non-cytotoxic, while those with lower values are considered more cytotoxic, and unsuitable for co-administration with activated MSC or activated iMSCs. For example, amikacin and enrofloxacin are more cytotoxic to joint cells (e.g. synovial cells and chondrocytes) than vancomycin, and should not be used for preparing the antibiotic plus activated MSCs formulations of uses herein, whereas vancomycin is one of the preferred antibiotics for these formulations for treating gram+ infections.
(§3) Table 2 represents and overview of equine IC50s of certain antibiotics of use herein

Synovial Cells = experiment: in vitro cytotoxic activity of antibiotics against horse synovial cells; format: cell-based; settings: for IC50: Equus caballus, Synovial cell, read-out: Concentration (equine IC50)
Text: as §1, §2, §3

[2] = in vitro cytotoxic activity of antibiotics against dog chondrocytes; format: cell-based; parameters: IC50 (cytotoxicity): unit not given beside the values
Text: as §1, with “cells. The antibiotics with the highest IC50 values are considered non-cytotoxic, while those with lower values are considered more cytotoxic, and unsuitable for co-administration with activated MSC or activated iMSCs.” for “cells.”

[3] = in vitro cytotoxic activity of antibiotics against dog synoviocytes; format: cell-based
Text: as §1, with “cells. The antibiotics with the highest IC50 values are considered non-cytotoxic, while those with lower values are considered more cytotoxic, and unsuitable for co-administration with activated MSC or activated iMSCs.” for “cells.”

[4] = tested on: MRSA strain of Staphylococcus aureus; experiment: equine model of septic arthritis (joint infected with MRSA), intra-articular treatment
Text: In one example, a model of septic arthritis was studied. […] Certain objectives of this study were to determine if intra-articular (IA) administration of TLR activated MSCs (e.g. bone marrow derived MSCs) improve clinical outcomes and reduce bacterial burden and biomarkers of joint inflammation in an equine model of septic arthritis compared to conventional antimicrobial therapy alone. It was hypothesized that activated MSC therapy in combination with conventional antibiotic therapy could improve resolution of septic arthritis as assessed by lameness evaluation, joint circumference, imaging, and more rapid resolution of bacterial infection and inflammatory biomarkers.
In this example, four horses, each experimentally infected in one joint with MRSA strain of Staphylococcus aureus in one joint were set up for the study. Treatment started 24 h after introduction of the infective agent, two antibiotic only (control); two in TLR3 MSC plus antibiotic. All horses were treated with vancomycin (e.g. 100 mg) injected directly into the joint. The control 2 horses were just treated with vancomycin. The experimental 2 horses were (TLR MSC horses) were also treated with activated equine allogeneic MSC (e.g. 2×10^6) injected into joint immediately after vancomycin. These treatments were repeated three times at 3-day intervals for MSC horse, only twice for control horse (euthanized on day 7). The treatment responses were evaluated by cultured synovial fluid from joints (bacti counts, cell counts) and joint circumference and swelling. […] The experimental horses receiving the combined treatment were euthanized on day 14 to assess joint parameters and bacterial counts.
Synovial fluid was collected from each horse in the study, at the indicated time points, starting the day before infection (DO) and continuing until day 7. Control horses treated with vancomycin injections into the joint only, while TLR-MSC horse was treated with both activated MSC and vancomycin, both injected into the joint. The vancomycin dose was 100 mg per injection, while the dose of TLR3 activated MSC was 2×10^6 cells per injection, consisting of activated, allogeneic MSC obtained from bone marrow of unrelated healthy horses.
Synovial fluid samples from the two horses described in FIGS. 1A and 1B were also evaluated for their concentration of live MRSA bacteria. Collected samples were processed to disaggregate the bacteria in the synovial fluid, then the sample was serially diluted in PBS and then plated on quadrant plates with LB agar.
Skeletally mature horses, (male Quarter Horses, 3 years of age), deemed healthy by physical examination, bloodwork (complete blood count, serum biochemical panel), and without evidence of tarsal osteoarthritis determined radiographically were treatment recipients.

CHONDROCYTES [5] = experiment: in vitro cytotoxic activity of antibiotics against dog chondrocytes; format: cell-based; parameters: IC50 (cytotoxicity): unit not given beside the values
Text: as §1, with “cells. The antibiotics with the highest IC50 values are considered non-cytotoxic, while those with lower values are considered more cytotoxic, and unsuitable for co-administration with activated MSC or activated iMSCs.” for “cells.”

`C[C@@H](O)[C@H]1C(=O)N2C(C(=O)O)=C(SCCN=CN)C[C@H]12` [Imipenem] gave an IC50 (Chondrocytes [1]; equine chondrocytes) greater than 25000 µg/mL and an IC50 (Synovial Cells; equine synovial cells) greater than 25000 µg/mL.
For `CC(C)(O/N=C(\C(=O)N[C@@H]1C(=O)N2C(C(=O)[O-])=C(C[n+]3ccccc3)CS[C@H]12)c1csc(N)n1)C(=O)O` [Ceftazidime], the IC50 ([2]; dog) was 3160 µg/mL (≈ 5.78 mM), the IC50 ([3]; dog) was 1620 µg/mL (≈ 2.97 mM) and the IC50 (Chondrocytes [1]; equine chondrocytes) was 3590 µg/mL (≈ 6.57 mM). For the same molecule, the IC50 (Synovial Cells; equine synovial cells) was 3360 µg/mL (≈ 6.15 mM).
`NC[C@H]1O[C@H](O[C@H]2[C@H](O)[C@@H](O[C@H]3O[C@H](CO)[C@@H](O)[C@H](N)[C@H]3O)[C@H](N)C[C@@H]2N)[C@H](N)C[C@@H]1O` [Tobramycin] gave an IC50 (Chondrocytes [1]; equine chondrocytes) greater than 25000 µg/mL and an IC50 (Synovial Cells; equine synovial cells) of 9490 µg/mL (≈ 20.3 mM).
Molecule `Cc1nnc(SCC2=C(C(=O)O)N3C(=O)[C@@H](NC(=O)Cn4cnnn4)[C@H]3SC2)s1` [Cefazolin] has an IC50 ([2]; dog) of 1670 µg/mL (≈ 3.67 mM), an IC50 ([3]; dog) of 1480 µg/mL (≈ 3.26 mM) and an IC50 (Chondrocytes [1]; equine chondrocytes) of 3950 µg/mL (≈ 8.69 mM). It also gave an IC50 (Synovial Cells; equine synovial cells) of 1160 µg/mL (≈ 2.54 mM).
For Ampicillin sulbactam, the “Concentration (equine IC50)” value (Chondrocytes [1]; equine chondrocytes) was greater than 25000 µg/mL and the “Concentration (equine IC50)” value (Synovial Cells; equine synovial cells) was greater than 25000 µg/mL.
In the case of `CC1(C)S[C@@H]2[C@H](NC(=O)Cc3ccccc3)C(=O)N2[C@H]1C(=O)[O-].[K+]` [Potassium penicillin], the “Concentration (equine IC50)” value (Chondrocytes [1]; equine chondrocytes) is reported as 11610 µg/mL.
For `C[C@H]1c2cccc(O)c2C(=O)C2=C(O)[C@]3(O)C(=O)C(C(N)=O)=C(O)[C@@H](N(C)C)[C@@H]3[C@@H](O)[C@@H]21` [Doxycycline], the IC50 (Chondrocytes [1]; equine chondrocytes) was 1030 µg/mL (≈ 2.32 mM) and the IC50 (Synovial Cells; equine synovial cells) was 711 µg/mL (≈ 1.6 mM).
Work on `CO/N=C(\C(=O)N[C@@H]1C(=O)N2C(C(=O)O)=C(CSC(=O)c3ccco3)CS[C@H]12)c1csc(N)n1` [Ceftiofur Sodium] yielded an IC50 (Chondrocytes [1]; equine chondrocytes) of 4270 µg/mL and an IC50 (Synovial Cells; equine synovial cells) greater than 25000 µg/mL.
For `CS(=O)(=O)c1ccc([C@@H](O)[C@@H](CF)NC(=O)C(Cl)Cl)cc1` [Florfenicol], the IC50 (Chondrocytes [1]; equine chondrocytes) was 2190 µg/mL (≈ 6.11 mM) and the IC50 (Synovial Cells; equine synovial cells) was 2960 µg/mL (≈ 8.25 mM).
With `CN[C@H](CC(C)C)C(=O)N[C@H]1C(=O)N[C@@H](CC(N)=O)C(=O)N[C@H]2C(=O)N[C@H]3C(=O)N[C@H](C(=O)N[C@H](C(=O)O)c4cc(O)cc(O)c4-c4cc3ccc4O)[C@H](O)c3ccc(c(Cl)c3)Oc3cc2cc(c3O[C@@H]2O[C@H](CO)[C@@H](O)[C@H](O)[C@H]2O[C@H]2C[C@](C)(N)[C@H](O)[C@H](C)O2)Oc2ccc(cc2Cl)[C@H]1O` [Vancomycin] the IC50 ([2]; dog chondrocytes, read-out: IC50 (cytotoxicity)) was 8640 µg/mL (≈ 5.97 mM), the IC50 ([3]; dog synoviocytes, read-out: IC50 (cytotoxicity)) was 13800 µg/mL (≈ 9.5 mM) and the “overall outcome of joint infection” value ([4]; control euthanized day 7, combined treatment day 14) was “uncontrolled joint infection”. For the same molecule, the “circumference of the infected tarsocrural joint (effusion)” value ([4]; infected joint vs uninfected joint) was “remained very swollen”, the “body temperature (fever) course” value ([4]; over time after MRSA joint infection) was “body temperature spikes were noted at two time points” and the “body temperature in peaks” value ([4]; spikes) was “around 102 ° F”. It also gave an IC50 (Chondrocytes [1]) of 7310 µg/mL (≈ 5.04 mM) and an IC50 (Synovial Cells) of 7810 µg/mL (≈ 5.39 mM).
For `NCC[C@H](O)C(=O)N[C@@H]1C[C@H](N)[C@@H](O[C@H]2O[C@H](CN)[C@@H](O)[C@H](O)[C@H]2O)[C@H](O)[C@H]1O[C@H]1O[C@H](CO)[C@@H](O)[C@H](N)[C@H]1O` [Amikacin], the IC50 ([2]; dog) was 2740 µg/mL (≈ 4.68 mM), the IC50 ([3]; dog) was 2260 µg/mL (≈ 3.86 mM) and the IC50 (Chondrocytes [1]; equine chondrocytes) was less than 390 µg/mL. It also gave an IC50 (Synovial Cells; equine synovial cells) of 799 µg/mL (≈ 1.36 mM).
In the case of `CCN1CCN(c2cc3c(cc2F)c(=O)c(C(=O)O)cn3C2CC2)CC1` [Enrofloxacin], the “IC50 (cytotoxicity)” value (CHONDROCYTES [5]) is reported as “.078< × <1.56”, the IC50 ([3]; dog) is reported as 1250 µg/mL (≈ 3.47 mM) and the IC50 (Chondrocytes [1]; equine chondrocytes) is reported as 4590 µg/mL (≈ 12.8 mM).
In the case of Neomycin, the “Concentration (equine IC50)” value (Chondrocytes [1]; equine chondrocytes) is reported as 821.9 µg/mL and the “Concentration (equine IC50)” value (Synovial Cells; equine synovial cells) is reported as 6274 µg/mL.
`CC1(C)S[C@@H]2[C@H](NC(=O)[C@H](N)c3ccc(O)cc3)C(=O)N2[C@H]1C(=O)O` [Amoxicillin] showed an IC50 (Chondrocytes [1]; equine chondrocytes) of 14000 µg/mL (≈ 38.3 mM) and an IC50 (Synovial Cells; equine synovial cells) greater than 25000 µg/mL.
With Gentamicin the “Concentration (equine IC50)” value (Chondrocytes [1]; equine chondrocytes) was 708.3 µg/mL and the “Concentration (equine IC50)” value (Synovial Cells; equine synovial cells) was 512.5 µg/mL.
